Test results from US10111921B2, “Regulation of brain biogenic amines associated with depression by a formulation from botanical source” (GoVind Prasad Dubey, priority 2014, dated 2018).
Marks after values point to notes of the source that are not given here.

Legend:
[1] = test system: depressive disorder cases; assay: Anxiety level (score), clinical trial; format: in vivo, human
Method: (§1) In the present study 99 cases between the age group of 20 to 60 years presenting the symptoms of mild to moderate depression were selected for clinical trial of test formulation containing extract of Nyctanthes arbor-tristis, Ocimum tenuiflorum and Hippophae salicifolia. The subjects were advised to take test formulation twice in a day in two divided doses (475 mg morning and 475 mg in the evening). The level of mood was measured by Major Depression Inventory (MDI) developed by Olsen L R et al (2003), the fatigue and psychomotor performance was measured by Mental Fatigue Apparatus and Rotary Pursuit Task. These tests and test battery are recommended by Gupta and Dubey (1994) for the scientific and objective assessment in the area of drug development. The behavioral pattern was repeatedly assessed at the continuous interval of one month for six months.

Platelet MAO = Platelet MAO activity in depressive disorder cases; format: in vivo, human
Method: as §1

IL-1 β = assay: Interleukin-1 β concentration in mild to moderate depressive patients; format: in vivo, human
Method: as §1

[2] = test system: depressive disorder cases; assay: Mental fatigue (Time), clinical trial; format: in vivo, human
Method: as §1

DHA = DHA content in mild to moderate depressive patients; format: in vivo, human
Method: as §1

Neuro-peptide-γ = Neuro-peptide-γ content in depressed patients; format: in vivo, human
Glutamate [3] = assay: Glutamate level in depression cases; format: in vivo, human
Method: as §1

depression cases [4] = assay: Occipito frontalis muscle action potential in depression cases; format: in vivo, human
Method: as §1

TNF-α = TNF-α in mild to moderate depressive patients; format: in vivo, human
Method: as §1

Glutamate [5] = assay: Column headed Glutamate (nmol/mg/hr) in platelet MAO table, depressive disorder cases; format: in vivo, human; conditions: After 6 months; clinical Table 8
Source text: (§2) In the present study 99 cases between the age group of 20 to 60 years presenting the symptoms of mild to moderate depression were selected for clinical trial of test formulation containing extract of Nyctanthes arbor-tristis, Ocimum tenuiflorum and Hippophae salicifolia. […] The behavioral pattern was repeatedly assessed at the continuous interval of one month for six months.

minor depressive cases [6] = assay: Mental fatigue level (Mental Fatigue Apparatus), clinical trial; format: in vivo, human
Method: as §1

GABA [7] = assay: GABA level in depression cases; format: in vivo, human
Method: as §1

depressive patients = assay: Sleep pattern by polysomnographic studies in depressive patients; format: in vivo, human
Method: as §1
In control series (Sertraline treated) all the investigations were repeated and compared with the treated group.
There is an increase in DHA content after oral administration of test formulation for 6 months (Table-12). […] Neuro-peptide-γ is the 36-amino acid which affects anxiety, stress, pain, circadian rhythm and also associated various psychiatric disorders particularly depression of varying degree. […] The effect of test formulation on sleep pattern measured by recording on polysomnographic studies indicated improvement in sleep period, total sleep, sleep latency and various stages of sleep. Though none of the cases could achieve the stage four. The results obtained in the test formulation treatment group were compared with the conventional drug treated group and exerted significant difference when the conventional treated group was compared with the test formulation treated group (Table-16-17). The drug was found safe and effective after 6 months of continuous oral administration to depressed patients.

Epinephrine = Epinephrine level in depressive cases; format: in vivo, human; conditions: Initial
Source text: as §2

minor depressive cases [8] = assay: Rotatory pursuit task (psychomotor coordination), clinical trial; format: in vivo, human
Method: as §1

depression patients = assay: Attention span (score), clinical trial; format: in vivo, human
Method: as §1

[9] = test system: mild to moderate depression; assay: Clinical symptomatology (in percent), clinical trial; format: in vivo, human
Method: as §1

depression cases [10] = assay: Delta wave in depression cases; format: in vivo, human
Method: as §1

Glutamate [11] = assay: Glutamate level in brain following experimental sleep deprivation stress; format: in vivo, rats of Charles foster strain; conditions: 7 days sleep deprivation stress + drug, 10 rats
Source text: (§3) The study is divided into four groups, 10 rats of Charles foster strain were kept in each study group.
(§4) In control group 10 rats were selected and kept on normal saline for 7 days. On 7th days the animals were sacrificed and various biogenic amines like 5-HT GABA & glutamate, melatonin and MAO were estimated. After dissection of rat's brain the biogenic amines were estimated in thalamus, hypothalamus and cortex.
(§5) In this group sleep deprivation stress for 7 days was given to all the 10 rats. After 7 days the rat's brain were dissected and thalamus, hypo-thalamus and cortex were separated for the measurement of brain biogenic amines.
(§6) In this group the sleep deprivation stress was introduced along with the hydro-alcoholic extract of three plants Nyctanthes arbor-tristis, Ocimum tenuiflorum and Hippophae salicifolia. The drug Nyctanthes arbor-tristis (100 mg/kg bw./day), Ocimum tenuiflorum (50 mg/kg bw./day), Hippophae salicifolia (50 mg/kg bw./day) was given in combined form to all the 10 rats along with sleep deprivation stress. On 7th day (after two hours of administration of test drug) different parts of the rat's brain were dissected and 5-HT, melatonin GABA. glutamate and histamine were measured.
(§7) On 7th days the animals were sacrifice and brain biogenic amines were estimated in different parts of rat's brain.
(§8) The value obtained were compared with each other group (Normal vs sleep deprivation stress and sleep deprivation stress vs sleep deprivation stress+test formulation and sleep deprivation stress vs modern drug treatment group. Apart from initial at 7 day before sacrificing the animals circulating biogenic amines were also measured in all the three groups.

GABA [12] = assay: Circulating GABA following experimental sleep deprivation stress; format: in vivo, rats of Charles foster strain; conditions: 7 days sleep deprivation stress + drug, 10 rats
Method: as §3, §6, §7, §8

Melatonin = Melatonin level in brain, experimental sleep deprivation stress model; format: in vivo, rats of Charles foster strain; conditions: 7 days sleep deprivation stress + drug, 10 rats
Method: In this group the sleep deprivation stress was introduced along with the hydro-alcoholic extract of three plants Nyctanthes arbor-tristis, Ocimum tenuiflorum and Hippophae salicifolia. […] On 7th day (after two hours of administration of test drug) different parts of the rat's brain were dissected and 5-HT, melatonin GABA. glutamate and histamine were measured. […]

Glutamate [13] = assay: Circulating glutamate following experimental sleep deprivation stress; format: in vivo, rats of Charles foster strain; conditions: 7 days sleep deprivation stress + drug, 10 rats
Method: as §3, §6, §7, §8

Histaminase = assay: Circulating histaminase following experimental sleep deprivation stress; format: in vivo, rats of Charles foster strain; conditions: 7 days sleep deprivation stress + drug, 10 rats
Method: as §3, §6, §7, §8

MAO = assay: Circulating MAO following experimental sleep deprivation stress; format: in vivo, rats of Charles foster strain; conditions: 7 days sleep deprivation stress + drug, 10 rats
Method: as §3, §6, §7, §8

GABA [14] = assay: GABA content in the brain following experimental sleep deprivation stress; format: in vivo, rats of Charles foster strain; conditions: 7 days sleep deprivation stress + drug, 10 rats
Source text: as §3, §4, §5, §6, §7, §8

## CN[C@H]1CC[C@@H](c2ccc(Cl)c(Cl)c2)c2ccccc21 [Sertraline]
[1]; After 6 months
  Anxiety level: 58.5 score
[1]; Initial
  Anxiety level: 56.5 score
Platelet MAO; After 6 months
  Platelet MAO: 5.98 nmol/mL/h
Platelet MAO; Initial
  Platelet MAO: 5.04 nmol/mL/h
IL-1 β; After 2 months
  IL-1 β: 1.886 µg/mL
IL-1 β; After 4 months
  IL-1 β: 1.923 µg/mL
IL-1 β; After 6 months
  IL-1 β: 1.790 µg/mL
IL-1 β; Initial
  IL-1 β: 2.098 µg/mL
[2]; After 6 month
  Mental fatigue (Time): 90.3
[2]; Initial
  Mental fatigue (Time): 94.5
DHA; After 2 months
  DHA: 1.082 g/100 g of total fatty acid
DHA; After 4 months
  DHA: 1.920 g/100 g of total fatty acid
DHA; After 6 months
  DHA: 1.980 g/100 g of total fatty acid
DHA; Initial
  DHA: 1.096 g/100 g of total fatty acid
Neuro-peptide-γ; After 2 months
  Neuro-peptide-γ: 148.90 pg/mL
Neuro-peptide-γ; After 4 months
  Neuro-peptide-γ: 151.89 pg/mL
Neuro-peptide-γ; After 6 months
  Neuro-peptide-γ: 156.04 pg/mL
Neuro-peptide-γ; Initial
  Neuro-peptide-γ: 129.68 pg/mL
Glutamate [3]; After 6 months
  Glutamate: 0.385 µmol/mL
Glutamate [3]; Initial
  Glutamate: 0.419 µmol/mL
Depression cases [4]; After 2 months
  Occipito frontalis muscle action potential: 41.75
Depression cases [4]; After 4 months
  Occipito frontalis muscle action potential: 42.82
Depression cases [4]; After 6 months
  Occipito frontalis muscle action potential: 40.86
Depression cases [4]; Initial
  Occipito frontalis muscle action potential: 4.378
TNF-α; After 2 months
  TNF-1 α: 3.71 ng/mL
TNF-α; After 4 months
  TNF-1 α: 3.85 ng/mL
TNF-α; After 6 months
  TNF-1 α: 4.14 ng/mL
TNF-α; Initial
  TNF-1 α: 4.82 ng/mL
Glutamate [5]
  Glutamate: 4.23 nmol/mg/h
Minor depressive cases [6]; After 2 months
  Mental fatigue level: 19.68 Hz
Minor depressive cases [6]; After 4 months
  Mental fatigue level: 19.02 Hz
Minor depressive cases [6]; After 6 months
  Mental fatigue level: 18.45 Hz
Minor depressive cases [6]; Initial
  Mental fatigue level: 18.22 Hz
GABA [7]; After 6 months
  GABA: 1.410 µmol/mL
GABA [7]; Initial
  GABA: 1.070 µmol/mL
Depressive patients; After 6 months treatment
  Sleep Latency: 14.98 min
  Sleep period: 438.35 min
  Stage-I (Time in min): 162.98 min
  Stage-II (Time in min): 46.22 min
  Stage-III (Time in min): 15.82 min
  Total Sleep: 201.94 min
Depressive patients; Before treatment
  Sleep Latency: 13.62 min
  Sleep period: 445.90 min
  Stage-I (Time in min): 179.32 min
  Stage-II (Time in min): 45.82 min
  Stage-III (Time in min): 18.22 min
  Total Sleep: 234.98 min
Epinephrine
  Epinephrine: 5.32 ng/mL
Minor depressive cases [8]; After 2 months
  Rotatory pursuit task: 28.03 Hz
Minor depressive cases [8]; After 4 months
  Rotatory pursuit task: 27.47 Hz
Minor depressive cases [8]; After 6 months
  Rotatory pursuit task: 26.52 Hz
Minor depressive cases [8]; Initial
  Rotatory pursuit task: 28.39 Hz
Depression patients; After 6 months
  Attention span: 9.32 Score
Depression patients; Initial
  Attention span: 10.49 Score
[9]; After 6 months
  Early fatiguability: 91.12* percent
  Lack of interest: 92.20* percent
  Pessimistic thinking: 95.86* percent
  Poor appetite: 50.03* percent
  Poor concentration: 86.02* percent
  Poor sleep: 79.41* percent
  Psychomotor retardation: 78.09* percent
  Weight loss: 40.32* percent
[9]; Initial
  Early fatiguability: 98.01%
  Lack of interest: 97.82%
  Pessimistic thinking: 96.27%
  Poor appetite: 58.89%
  Poor concentration: 88.41%
  Poor sleep: 98.04%
  Psychomotor retardation: 74.66%
  Weight loss: 42.01%
Depression cases [10]; After 2 months
  Delta Wave: 0.94 Hz
Depression cases [10]; After 4 months
  Delta Wave: 1.06 Hz
Depression cases [10]; After 6 months
  Delta Wave: 1.02 Hz
Depression cases [10]; Initial
  Delta Wave: 0.68 Hz

## CNC1=Nc2ccc(Cl)cc2C(c2ccccc2)=[N+]([O-])C1 [Librium]
Glutamate [11]; cortex
  Glutamate, Cortex: 13.97 ± 2.11 μmol/gm in wet tissue
Glutamate [11]; hypothalamus
  Glutamate, Hypothalamus: 12.66 ± 3.06 μmol/gm in wet tissue
Glutamate [11]; thalamus
  Glutamate, Thalamus: 11.64 ± 3.01 μmol/gm in wet tissue
GABA [12]
  GABA (circulating): 1.02 ± 0.18 µmol/mL
Melatonin; hypothalamus
  Melatonin, Hypothalamus: 7.80 ± 1.02 μg/gm in wet tissue
Melatonin; thalamus
  Melatonin, Thalamus: 5.95 ± 1.85 μg/gm in wet tissue
Glutamate [13]
  Glutamate (circulating): 1.11 ± 0.10 µmol/mL
Histaminase
  Histaminase (circulating): 35.46 ± 4.95 µg/mL
MAO
  MAO (circulating): 4.72 ± 0.89 nmol/m//hrs.
GABA [14]; cortex
  GABA, Cortex: 2.62 ± 0.59 μmol/gm in wet tissue
GABA [14]; hypothalamus
  GABA, Hypothalamus: 4.68 ± 1.02 μmol/gm in wet tissue
GABA [14]; thalamus
  GABA, Thalamus: 3.91 ± 0.58 μmol/gm in wet tissue
